Laboratory results from patent publication EP0151964A2, “New derivatives of alpha-amino-gamma-butyrolactone, method for the preparation thereof and pharmaceutical compositions containing them” (priority 1984, dated 1985).

Legend:
[1] = Sedation of laboratory animals; format: in vivo; settings: dose of about 50 mg/kg
Method: The compound was administered to laboratory animals at a dose of about 50 mg/kg. The animals were sedated.
A good yield of α-n-pentylcarbonyl-amino-γ-butyrolactone is ob= tained. The compound was administered to laboratory animals at a dose of about 50 mg/kg. The animals were sedated.

[2] = Enhancement of the hypnotic effect of sodium pentobarbital (loss of righting reflex); format: in vivo; settings: mouse
Method: 40 mg, kgof sodium pentobarbital was injected intraperitoneal ly into mice and note was taken of animals losing the righting re= flex and for how long. Other mice received a preliminary treat= ment with PTT-01 at a dosage of 25 and 50 mg/kg, intraperitoneally and thereafter sodium pentobarbital was given.

[3] = Antagonism towards electroshock (maximal electroshock, MES); format: in vivo; settings: mouse; for Number of animals with Clonic convulsions / Number of animals with Tonic convulsions: treated animals in parentheses
Method: Electroshock was produced in mice by applying ear electrodes. Stimulation parameters which could induce the maximal electroshok (MES) were adopted. This was obtained by applying rectangular input shocks for 0.6 seconds. Each input lasted […] and the input frequency was 25/sec. Phenobarbital sodium was used as control substance. […]

[4] = Antagonism towards d-amphetamine: amphetamine-induced hypermobility; format: in vivo, mice; design: reference not given here
Method: (§1) This particular feature of the compound could be deduced from the influence the compound exerted on: (a) d-amphetamine toxicity to mice kept in group, and (b) response time of une avoidance re= flex.
Six groups of 4 mice each were treated with 5 mg/kg of d-am= phetamine sulfate by intraperitoneal administration. Six groups of 4 animals each received the same dose of d-amphetamine sulfate plus 25 mg/kg of PTT-01 intraperitoneally, 15 minutes after d-am= phetamine sulfate; six groups of 4 animals each received saline solution and were used as controls. Spontaneous mobility was ob= served in every animal according to the procedure described herein before. The number of times each animal crossed the light beam throughout the 10 minutes test was noted. As appears from Table 4, the treatment with PTT-01 aid not prevent d-amphetamine from stimulating spontaneous mobility.

Arterial blood pressure = format: in vivo; settings: single 50 mg/kg oral dose
Method: (§2) The effect of a single 50 mg/kg oral dose of PTT-01 was deter mined on (a) diuresis in water-loaded rats, (b) choleresis, (c) ex cretion rate of intravenously injected bromosulphonphthalein in bi le, (d) arterial blood pressure.

[5] = Antagonism towards strychnine: protection from death caused by hypodermic injection; format: in vivo; settings: mouse, single oral 50 mg/kg dose, 1.2 mg/kg strichnine sulfate, groups of six
Method: (§3) This type of antagonism was evaluated in the mouse as follows: (1) protection from death caused by a hypodermic injection of strychnine; (2) evaluation of the LD50 of strychnine both in mice treated and untreated with PTT-01 and (3) influence on the time re quired to cause animals to die by slow intravenous perfusion of strychnine.
Groups of six mice were used. Results are given in Ta= ble 5.

[6] = Electrode recording in the unrestrained cat; format: in vivo; settings: permanent electrodes, 50 or 100 mg/kg
[7] = Acute toxicity in animals; format: in vivo, rats ( Wistar-Morini Strain); settings: for LD50: aqueous 1% suspension of tragacanth gum
Method: PTT-01 was administered to adult rats ( Wistar-Morini Strain) of both sexes after fasting overnight. It was administered in an aqueous 1% suspension of tragacanth gum orally by gastric probe or intraperitoneally.

[8] = Sleep in cats conditioned to sleep for 8 hours; format: in vivo; settings: 25 and 35 mg/kg
[9] = Avoidance reflex (response time in two-chamber conditioning cage); format: in vivo; settings: four conditioned mice, controls 53.3±4.5 sec
Text: as §1
A conditioning cage consisting of two chambers was used, with free access between the chambers. The floor of one compartment was electrified to make it possible to deliver a mild shook. Eice were conditioned by first giving a warning signal and then,af ter a short period of time the shock was applied. Mice learned to leave the electrified compartment after the warning bell soun= ded were then judged to be conditioned. The average period of ti me, in this experiment, for controls (4) within which they leave the compartment was 53.3±4.5 sec. Four conditioned mice were given PTT-01 intraperitoneally(25 mg/kg); time within which they left the compartment was 60.6 + 3.9 sec. Four conditioned mice treat= ed with 50 mg/kg of PTT-C1 left the compartment only after 77.5 ± 2.7 sec.

[10] = Excretion rate of intravenously injected bromosulphonphthalein in bile; format: in vivo; settings: single 50 mg/kg oral dose
Method: as §2

Rotating bar test = format: in vivo; settings: trained mice, group of five
Method: Mice were trained to remain on a rotating bar for at least 3 minutes. A group of five of the trained mice were given an intra peritoneal injection of 25 mg/kg of PTT-01 in a 1% suspension of tragacanth gum. Another group of five mice were given an intra= peritoneal injection of 50 mg/kg of PTT-01 in a 1% suspension of tragacanth gum. All control animals stayed on the bar for 3 mi= nutes.

[11] = Subacute toxicity in animals; format: in vivo; settings: 8 rats, 50 mg/kg daily for 6 consecutive days
Method: Accor= dingly, 8 rats were given 50 mg/kg daily for 6 consecutive days.

[12] = Antagonism towards strychnine: time to death under slow intravenous infusion; format: in vivo; settings: mice; for mean infusion time to cause death: infusion rate 0.25 ml/min
Method: as §3
(3) continuous intravenous infusion at constant rate (0.4 ml/min) of a strychnine sulfate solution (26.66 mg/l) was carried out by injection in a tail vein in mice until they died. One group of aninals received 50 mg/kg of PTT-01 as preliminary treatment 15 mi nutes before the beginning of the infusion. The mean infusion ti me to cause six controls to die was 134 ± 3.2 seconds (mean + SE). The mean infusion time required to obtain the same effect in animals pretreated with PTT-01 was 210 ± 6.1 seconds.
In another experiment the infusion rate of strychnine was low ered to 0.25 ml/min. Under this conditions, the mean infusion ti me was 246 ± 3.1 seconds in the case of controls (six animals) and 338 ± 24.3 seoondss in treated animals.
When the above mentioned infusion rate was maintained, while redu= cine the amount of PTT-01 to 25 mg/kg, the mean infusion time was 260 + 13.4 seconds in controls and 360 + 21.2 seconds in the treat ed animals.

[13] = Diuresis in water-loaded rats; format: in vivo
[14] = Mortality from d-amphetamine in mice kept in group; format: in vivo; settings: eight grouped mice, same amount (25 mg/kg) i.p. 10 minutes before 10 mg/kg d-amphetamine sulfate i.p.; all eight controls died
Method: as §1
However, PTT-01 reduced mortality from d-amphetamine. The same amount of PTT-01 was injected intraperitoneally. Then, 10 minutes later, an intraperitoneal injection of 10 mg/kg of d-amphe tamine sulfate was administered. Eight animals were used in this test and kept in a 25 x 20 x 14 om cage in an air-conditioned room (20°C, 6C,- humidity). […]

[15] = Influence on the electromyogram, rabbit with cortical electrodes; format: in vivo; settings: electrodes implanted in cerebral cortex, 50 mg/kg intraperitoneal, similar to 30 mg/kg intravenous phenobarbital sodium
Method: The effect was similar to the effect caused by 30 mg/kg of intravenous phenobarbital sodium.

[16] = Spontaneous mobility (interruptions of a light beam in 10 minutes); format: in vivo; settings: mice, controls fell to 71.4%
Method: Several groups of 4 mice each were placed in an apparatus de signed to provide a measure of spontaneous mobility by counting the number of interruptions of a light beam for a period of 10 mi= nutes. After preliminary measurement of mobility, animals were injected with PTT-01 (25 and 50 mg/kg) intraperitoneally. Con= trols received saline solution. Then minutes thereafter the mea= surement of mobility was repeated. Five groups of mice were used as controls and 6 other groups were treated with varying doses of PTT-01.

Choleresis = format: in vivo; settings: single 50 mg/kg oral dose
Method: as §2

[17] = 40 mg/kg i.p. 10 minutes before electroshock
[18] = 25 mg/kg i.p. 10 minutes before electroshock
[19] = I 25 mg/kg + II 40 mg/kg intraperitoneally
[20] = I 50 mg/kg + II 40 mg/kg intraperitoneally

CC(C)CC(=O)NC1CCOC1=O (stereo not drawn) [Example 2, α-isobutylcarbonyl-amino-γ-butyrolactone]
sedation [1]: sedated

CCCCCC(=O)NC1CCOC1=O (stereo not drawn) [Example 3, α-n-pentylcarbonyl-amino-γ-butyrolactone]
sedation [1]: sedated

CCCC(C)C1(CC)C(=O)NC(=O)NC1=O (stereo not shown) [II, sodium pentobarbital, reference compound]
Animals under hypnosis/ treated ([2]; II 40 mg/kg intraperitoneally alone): 3/4
Duration of hypnosis in minutes (m± SE) ([2]; II 40 mg/kg intraperitoneally alone, zero assigned to animals not losing the righting reflex): 3.25 ± 3.4 min

CCC1(c2ccccc2)C(=O)NC(=O)NC1=O [Phenobarbital Na, Phenobarbital sodium, reference compound]
Number of animals Dead [3, 17]: 0/8
Number of animals with Clonic convulsions [3, 17]: 8 (8)
Number of animals with Tonic convulsions [3, 17]: 0 (8)

C[C@H](N)Cc1ccccc1 [d-amphetamine, reference compound]
Mean number of crossings (± SE) in 10 minutes ([4]; mouse, in vivo): 657 ± 59

α-n-butylcarbonyl-amino-γ-butyrolactone [PTT-01]
arterial blood pressure (Arterial blood pressure): No treatment caused any signi= ficant change
Mean number of crossings (± SE) in 10 minutes ([4]; mice, d-amphetamine 5 mg/kg i.p. + 25 mg/kg i.p. given 15 minutes after d-amphetamine): 836 ± 100
protection against the lethal effect of strichnine sulfate [5]: protected all the animals
sedation and electromyographic alterations [6]: sedation oc= curred without electromyographic alterations
effect in rats ([7]; 50 mg/kg by oral route): did not cause any particular effect
effect in rats ([7]; 100 mg/kg by oral route): mild sedative effect
duration of the sedative and hypnotic effects ([7]; rats, acute toxicity doses, animal returned to normal): not long lasting
sedative effect ([7]; rats, from the lowest intraperitoneal dose): the sedative effect was obtained
loss of the righting reflex ([7]; rats, highest oral dose): not cause the loss of the righting reflex
sedative effect ([7]; rats, highest oral dose): produced a sedative effect
loss of the righting reflex ([7]; rats, intraperitoneal, 1 g/kg): the loss of the righting reflex occurred
LD50 ([7]; rats, intraperitoneally): more than 2 g/kg
LD50 ([7]; rats, orally by gastric probe): more than 2 g/kg
number of cases of REM sleep [8]: reduced the number of cases of REM sleep
total sleeping time [8]: did not modify the total sleeping time
Number of animals Dead [3, 18]: 0/8
Number of animals with Clonic convulsions [3, 18]: 8 (8)
Number of animals with Tonic convulsions [3, 18]: 0 (8)
time within which they left the compartment ([9]; 25 mg/kg intraperitoneally): 60.6 + 3.9 sec
time within which they left the compartment ([9]; 50 mg/kg): 77.5 ± 2.7 s
excretion rate of intravenously injected bromosulphonphthalein in bile [10]: No treatment caused any signi= ficant change
Animals under hypnosis/ treated [2, 19]: 4/4
Duration of hypnosis in minutes (m± SE) [2, 19]: 52.5 ± 13 min
Animals under hypnosis/ treated [2, 20]: 4/4
Duration of hypnosis in minutes (m± SE) [2, 20]: 75.2 ± 21.6 min
mice staying on the bar for 3 minutes (Rotating bar test; 25 mg/kg intraperitoneal): two out of the five
mice staying on the bar for 3 minutes (Rotating bar test; 50 mg/kg intraperitoneal): none
sedative effect or other abnormal symptoms [11]: No sedative effect or other abnormal symptoms were observed
mean infusion time to cause death ([12]; 25 mg/kg, controls 260 + 13.4): 360 + 21.2 seconds
mean infusion time to cause death (mean + SE) ([12]; 50 mg/kg 15 minutes before infusion, strychnine sulfate 26.66 mg/l at 0.4 ml/min, controls 134 ± 3.2): 210 ± 6.1 s
mean infusion time to cause death ([12]; 50 mg/kg, controls 246 ± 3.1): 338 ± 24.3 s
diuresis in water-loaded rats ([13]; single 50 mg/kg oral dose): No treatment caused any signi= ficant change
rate of urine excretion ([13]; water-loaded rats, daily oral dose of 50 mg/kg for five subsequent days): slowed
animals died [14]: 5 of the eight
electromyographic tracing [15]: tracing to become flat
mobility, % of the base-line values ([16]; 25 mg/kg intraperitoneally): 31.9%
mobility, % of the base-line values ([16]; 50 mg/kg intraperitoneally): 23.1%
choleresis (Choleresis): No treatment caused any signi= ficant change
